We go through 26 compounds from patent US12098145B2 (Libra Therapeutics, Inc., priority 2022, dated 2024).

SMILES strings stand for the structures.

The target in this experiment is T1, TRPML1 (Homo sapiens, UniProt Q9GZU1).
T1 construct: expressed in transfected cells; host or cells: HEK T-REx cells stably expressing GCaMP6f and TRPML1
T1 sequence (Q9GZU1 whole entry): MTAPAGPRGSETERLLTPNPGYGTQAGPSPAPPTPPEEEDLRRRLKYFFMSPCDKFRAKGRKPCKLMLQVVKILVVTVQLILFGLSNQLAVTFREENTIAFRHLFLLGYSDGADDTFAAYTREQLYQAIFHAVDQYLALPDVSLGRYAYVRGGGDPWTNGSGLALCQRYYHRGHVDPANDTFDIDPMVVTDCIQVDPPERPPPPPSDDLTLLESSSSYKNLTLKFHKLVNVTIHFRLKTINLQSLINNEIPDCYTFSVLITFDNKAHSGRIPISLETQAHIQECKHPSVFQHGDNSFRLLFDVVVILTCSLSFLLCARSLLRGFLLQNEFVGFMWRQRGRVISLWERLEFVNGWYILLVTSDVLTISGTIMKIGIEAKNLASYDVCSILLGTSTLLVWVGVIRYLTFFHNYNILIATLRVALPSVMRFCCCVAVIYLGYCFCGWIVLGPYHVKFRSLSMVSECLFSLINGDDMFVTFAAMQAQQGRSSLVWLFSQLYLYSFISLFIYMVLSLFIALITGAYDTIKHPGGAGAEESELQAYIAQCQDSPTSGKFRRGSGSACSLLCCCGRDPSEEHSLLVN
Briefly: Cellular TRPML1 assay (FLIPR, GCaMP6f calcium read-out). It is filed as cell-based. As to conditions: HEKT-REx/GCaMP6f/TRPML1 cells, FLIPR TETRA, kinetic response over 300 seconds; read-out: TRPML1 FLIPR pEC50 (converted). In short, it runs like this:
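Read-out is GCaMP6f fluorescence over 300 s after compound addition in Ca2+-free Tyrode's buffer, final DMSO 0.5%, on FLIPR Tetra. Cells are HEK T-REx stably co-expressing the indicator and TRPML1, plated 24 h earlier in Optimem + 0.5% FBS and pre-incubated ~10 min at room temperature.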
For `O=C(Nc1cc(F)c(OCC23CC(C2)C3)c(F)c1)c1nc(N2CCCC2)oc1CC(F)(F)F` [Example 136, N-(4-(bicyclo[1.1.1]pentan-1-ylmethoxy)-3,5-difluorophenyl)-2-(pyrrolidin-1-yl)-5-(2,2,2-trifluoroethyl)oxazole-4-carboxamide], the EC50 is 10 to 1000 nM. The figure for `CCC1(CC)CN(c2nc(C(=O)Nc3cc(F)c(OC4CCCOC4)c(F)c3)c(CC(F)(F)F)o2)C1` (centres unmarked) [Example 137, 2-(3,3-diethylazetidin-1-yl)-N-(3,5-difluoro-4-((tetrahydro-2H-pyran-3-yl)oxy)phenyl)-5-(2,2,2-trifluoroethyl)oxazole-4-carboxamide] is 10 to 1000 nM. The same measure for `O=C(Nc1cc(F)c(OC2CCC3(CC3)C2)c(F)c1)c1nc(N2CCCC2)oc1CC(F)(F)F` (centres unmarked) [Example 138, N-(3,5-difluoro-4-(spiro[2.4]heptan-5-yloxy)phenyl)-2-(pyrrolidin-1-yl)-5-(2,2,2-trifluoroethyl)oxazole-4-carboxamide]: 10 to 1000 nM; for `O=C(Nc1cc(F)c(OC2CC3(CCC3)C2)c(F)c1)c1nc(N2CCCC2)oc1CC(F)(F)F` [Example 139, N-(3,5-difluoro-4-(spiro[3.3]heptan-2-yloxy)phenyl)-2-(pyrrolidin-1-yl)-5-(2,2,2-trifluoroethyl)oxazole-4-carboxamide]: 10000 to 100000 nM. The figure for `O=C(Nc1cc(F)c(OC2CC3CCC2C3)c(F)c1)c1nc(N2CCCC2)oc1CC(F)(F)F` (centres unmarked) [Example 141, N-(4-(bicyclo[2.2.1]heptan-2-yloxy)-3,5-difluorophenyl)-2-(pyrrolidin-1-yl)-5-(2,2,2-trifluoroethyl)oxazole-4-carboxamide] is 10 to 1000 nM; for `COC1(C)CN(c2nc(C(=O)Nc3ccc(O[C@@H]4C[C@@H]5C[C@@H]5C4)c(C#N)c3)c(CC(F)(F)F)o2)C1` [Example 146, N-(4-(cis-bicyclo[3.1.0]hexan-3-yloxy)-3-cyanophenyl)-2-(3-methoxy-3-methylazetidin-1-yl)-5-(2,2,2-trifluoroethyl)oxazole-4-carboxamide] it is 1000 to 10000 nM. As for `COCCN(CC(C)C)c1nc(C(=O)Nc2cc(F)c(O[C@@H]3C[C@@H]4C[C@@H]4C3)c(F)c2)c(CC(F)(F)F)o1` [Example 147, N-(4-(cis-bicyclo[3.1.0]hexan-3-yloxy)-3,5-difluorophenyl)-2-(isobutyl(2-methoxyethyl)amino)-5-(2,2,2-trifluoroethyl)oxazole-4-carboxamide], the EC50 is 1000 to 10000 nM. Turning to `CCC1(OC)CN(c2nc(C(=O)Nc3cc(F)c(OC4C[C@@H]5CC[C@H]4C5)c(F)c3)c(CC(F)(F)F)o2)C1` (stereo partly drawn) [Example 151, N-(4-(((1S,4R)-bicyclo[2.2.1]heptan-2-yl)oxy)-3,5-difluorophenyl)-2-(3-ethyl-3-methoxyazetidin-1-yl)-5-(2,2,2-trifluoroethyl)oxazole-4-carboxamide], the EC50 is 10 to 1000 nM. The figure for `CCCN(CCOC)c1nc(C(=O)Nc2cc(F)c(O[C@@H]3C[C@@H]4C[C@@H]4C3)c(F)c2)c(CC(F)(F)F)o1` [Example 152, N-(4-(cis-bicyclo[3.1.0]hexan-3-yloxy)-3,5-difluorophenyl)-2-((2-methoxyethyl)(propyl)amino)-5-(2,2,2-trifluoroethyl)oxazole-4-carboxamide] is 10000 to 100000 nM; for `O=C(Nc1ccc(O[C@@H]2CC3C[C@@H]3C2)c(F)c1)c1nc(N2CC3OCOC3C2)oc1CC(F)(F)F` (stereo partly drawn) [Example 153, N-(4-(cis-bicyclo[3.1.0]hexan-3-yloxy)-3-fluorophenyl)-2-(tetrahydro-5H-[1,3]dioxolo[4,5-c]pyrrol-5-yl)-5-(2,2,2-trifluoroethyl)oxazole-4-carboxamide] it is 10 to 1000 nM. The figure for `CCC1(CC)CN(c2nc(C(=O)Nc3ccc(OC4CCCOC4)c(F)c3)c(CC(F)(F)F)o2)C1` (centres unmarked) [Example 158, 2-(3,3-diethylazetidin-1-yl)-N-(3-fluoro-4-((tetrahydro-2H-pyran-3-yl)oxy)phenyl)-5-(2,2,2-trifluoroethyl)oxazole-4-carboxamide] is 10 to 1000 nM.

Regarding `CCC1(OC)CN(c2nc(C(=O)Nc3cc(F)c(OC4CCCOC4)c(F)c3)c(CC(F)(F)F)o2)C1` (centres unmarked) [Example 160, N-(3,5-difluoro-4-((tetrahydro-2H-pyran-3-yl)oxy)phenyl)-2-(3-ethyl-3-methoxyazetidin-1-yl)-5-(2,2,2-trifluoroethyl)oxazole-4-carboxamide], the EC50 is 10 to 1000 nM. The same measure for `O=C(Nc1cc(F)c(O[C@@H]2C[C@@H]3C[C@@H]3C2)c(F)c1)c1nc(N2Cc3conc3C2)oc1CC(F)(F)F` [Example 166, N-(4-(cis-bicyclo[3.1.0]hexan-3-yloxy)-3,5-difluorophenyl)-2-(4H-pyrrolo[3,4-c]isoxazol-5(6H)-yl)-5-(2,2,2-trifluoroethyl)oxazole-4-carboxamide]: 10 to 1000 nM; for `CCC1(OC)CN(c2nc(C(=O)Nc3cc(F)c(O[C@@H]4C[C@@H]5C[C@@H]5C4)c(F)c3)c(CC(F)(F)F)o2)C1` [Example 167, N-(4-(cis-bicyclo[3.1.0]hexan-3-yloxy)-3,5-difluorophenyl)-2-(3-ethyl-3-methoxyazetidin-1-yl)-5-(2,2,2-trifluoroethyl)oxazole-4-carboxamide]: 10 to 1000 nM; for `COCC1(COC)CN(c2nc(C(=O)Nc3cc(F)c(O[C@@H]4C[C@@H]5C[C@@H]5C4)c(F)c3)c(CC(F)(F)F)o2)C1` [Example 168, N-(4-(cis-bicyclo[3.1.0]hexan-3-yloxy)-3,5-difluorophenyl)-2-(3,3-bis(methoxymethyl)azetidin-1-yl)-5-(2,2,2-trifluoroethyl)oxazole-4-carboxamide]: 10 to 1000 nM. The same measure for `O=C(Nc1cc(F)c(OC2CC3CC(C3)C2)c(F)c1)c1nc(N2CCCC2)oc1CC(F)(F)F` (centres unmarked) [Example 169, N-(4-(bicyclo[3.1.1]heptan-3-yloxy)-3,5-difluorophenyl)-2-(pyrrolidin-1-yl)-5-(2,2,2-trifluoroethyl)oxazole-4-carboxamide]: 10 to 1000 nM; for `O=C(Nc1cc(F)c(OC2CC3C[C@@H]3C2)c(F)c1)c1nc(N2CC3CC2C3)oc1CC(F)(F)F` (stereo partly drawn) [Example 175, 2-(2-azabicyclo[2.1.1]hexan-2-yl)-N-(4-(cis-bicyclo[3.1.0]hexan-3-yloxy)-3,5-difluorophenyl)-5-(2,2,2-trifluoroethyl)oxazole-4-carboxamide]: 10 to 1000 nM. The figure for `CC1CN(c2nc(C(=O)Nc3cc(F)c(OC4CC5C[C@H]5C4)c(F)c3)c(CC(F)(F)F)o2)CC(C)O1` (stereo partly drawn) [Example 176, N-(4-(cis-bicyclo[3.1.0]hexan-3-yloxy)-3,5-difluorophenyl)-2-(2,6-dimethylmorpholino)-5-(2,2,2-trifluoroethyl)oxazole-4-carboxamide] is 10000 to 100000 nM; for `O=C(Nc1cc(F)c(O[C@@H]2C[C@@H]3C[C@@H]3C2)c(F)c1)c1nc(N2CCOCC2)oc1CC(F)(F)F` [Example 181, N-(4-(cis-bicyclo[3.1.0]hexan-3-yloxy)-3,5-difluorophenyl)-2-morpholino-5-(2,2,2-trifluoroethyl)oxazole-4-carboxamide] it is 1000 to 10000 nM; for `O=C(Nc1cc(F)c(OC2CC3C[C@@H]3C2)c(F)c1)c1nc(N2CC3CC2CO3)oc1CC(F)(F)F` (stereo partly drawn) [Example 182, 2-(2-oxa-5-azabicyclo[2.2.1]heptan-5-yl)-N-(4-(cis-bicyclo[3.1.0]hexan-3-yloxy)-3,5-difluorophenyl)-5-(2,2,2-trifluoroethyl)oxazole-4-carboxamide] it is 1000 to 10000 nM. Consider `CC1(C)CN(c2nc(C(=O)Nc3cc(F)c(O[C@@H]4C[C@@H]5C[C@@H]5C4)c(F)c3)c(CC(F)(F)F)o2)CCO1` [Example 184, N-(4-(cis-bicyclo[3.1.0]hexan-3-yloxy)-3,5-difluorophenyl)-2-(2,2-dimethylmorpholino)-5-(2,2,2-trifluoroethyl)oxazole-4-carboxamide], for which the EC50 was 1000 to 10000 nM.

Turning to `O=C(Nc1ccc(OC2CC3C[C@@H]3C2)c(F)c1)c1nc(N2CC3CCOC3C2)oc1CC(F)(F)F` (stereo partly drawn) [Example 187, N-(4-(cis-bicyclo[3.1.0]hexan-3-yloxy)-3-fluorophenyl)-2-(hexahydro-5H-furo[2,3-c]pyrrol-5-yl)-5-(2,2,2-trifluoroethyl)oxazole-4-carboxamide], the EC50 was 10 to 1000 nM. For `O=C(Nc1cc(F)c(O[C@@H]2C[C@@H]3C[C@@H]3C2)c(F)c1)c1nc(N2CC3(CCOCC3)C2)oc1CC(F)(F)F` [Example 188, N-(4-(cis-bicyclo[3.1.0]hexan-3-yloxy)-3,5-difluorophenyl)-2-(7-oxa-2-azaspiro[3.5]nonan-2-yl)-5-(2,2,2-trifluoroethyl)oxazole-4-carboxamide], the EC50 was 10 to 1000 nM. The same measure for `O=C(Nc1cc(F)c(O[C@@H]2C[C@@H]3C[C@@H]3C2)c(F)c1)c1nc(N2CC3(CCOC3)C2)oc1CC(F)(F)F` [Example 189, N-(4-(cis-bicyclo[3.1.0]hexan-3-yloxy)-3,5-difluorophenyl)-2-(6-oxa-2-azaspiro[3.4]octan-2-yl)-5-(2,2,2-trifluoroethyl)oxazole-4-carboxamide]: 10 to 1000 nM; for `O=C(Nc1ccc(OCC2CC3CC3C2)c(F)c1)c1nc(N2CCCC2)oc1CC(F)(F)F` (centres unmarked) [Example 190, N-(4-(bicyclo[3.1.0]hexan-3-ylmethoxy)-3-fluorophenyl)-2-(pyrrolidin-1-yl)-5-(2,2,2-trifluoroethyl)oxazole-4-carboxamide]: 1000 to 10000 nM; for `CCC1(CC)CN(c2nc(C(=O)Nc3cnc(OC4CC5C[C@H]5C4)c(F)c3)c(CC(F)(F)F)o2)C1` (stereo partly drawn) [Example 191, N-(6-(cis-bicyclo[3.1.0]hexan-3-yloxy)-5-fluoropyridin-3-yl)-2-(3,3-diethylazetidin-1-yl)-5-(2,2,2-trifluoroethyl)oxazole-4-carboxamide]: 1000 to 10000 nM.
